Patent publication US20240252488A1 (KOREA RESEARCH INSTITUTE OF CHEMICAL TECHNOLOGY, priority 2020, published 2024)

Tests used:
FADD−/− Jurkat cells = experiment: Necroptosis inhibition assay, TNF-α-induced necroptosis (CellTiter-Glo 2.0); format: cell-based, human; details: TNF-α 15 ng/mL; for Necroptosis inhibition assay (Rescue %) 1 μM: compound 1 μM; for Necroptosis inhibition assay (Rescue %) 10 μM: compound 10 μM
In short: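 Necroptosis was triggered by TNF-α at 15 ng/mL final following 30 minutes of compound exposure (0.1, 1 or 10 μM final). Incubation ran 20 to 24 hours at 37° C under 5% CO2; cell ATP was then quantified by luminescence.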

MLKL [1] = biological target: T1, MLKL (Homo sapiens, UniProt Q8NB16); experiment: MLKL degradation assay in HepG2 cell line (western blot); format: cell-based; design: endogenous in cells; host or cells: HepG2 or HaCaT; details: cell line not given; for Degradation assay (Degradation %) 1 μM: compound 1 μM; for Degradation assay (Degradation %) 10 μM: compound 10 μM
T1 sequence (Q8NB16 1-471): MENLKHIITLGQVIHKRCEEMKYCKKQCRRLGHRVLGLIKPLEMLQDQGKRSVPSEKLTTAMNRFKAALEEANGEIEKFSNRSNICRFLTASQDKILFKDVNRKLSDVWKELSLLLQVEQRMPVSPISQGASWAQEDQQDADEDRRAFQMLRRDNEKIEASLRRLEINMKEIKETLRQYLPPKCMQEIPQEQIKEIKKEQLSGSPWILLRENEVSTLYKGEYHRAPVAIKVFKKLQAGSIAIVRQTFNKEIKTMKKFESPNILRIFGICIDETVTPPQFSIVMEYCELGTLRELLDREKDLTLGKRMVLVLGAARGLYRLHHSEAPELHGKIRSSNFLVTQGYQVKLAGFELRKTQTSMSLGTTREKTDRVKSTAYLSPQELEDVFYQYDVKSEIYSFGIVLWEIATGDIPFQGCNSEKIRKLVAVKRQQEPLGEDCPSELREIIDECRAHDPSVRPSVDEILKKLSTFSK
In short: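 After treating HepG2 with test compounds (final 1 μM or 10 μM) for 20-24 h, we lysed cells, equalized protein by BCA and probed MLKL by overnight primary antibody at 4 °C followed by chemiluminescent detection.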

MLKL [2] = biological target: T1, MLKL; experiment: Measurement of binding affinity with MLKL receptor (competitive binding assay, Kd); design: made in house; host or cells: HEK 293 cell line (T7 phage in E. coli BL21-derived host is also described)
In short: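 Competition binding of kinase tagged with DNA for qPCR detection, expressed in HEK 293 cells, against immobilized ligand on beads. Final DMSO 0.9%. Kd derived from kinase amount in eluates measured by qPCR.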

SMILES	Degradation assay (Degradation %) 1 μM (MLKL [1])	Degradation assay (Degradation %) 10 μM (MLKL [1])	Kd (MLKL [2])	Necroptosis inhibition assay (Rescue %) 1 μM (FADD−/− Jurkat cells; FADD−/− Jurkat cells)	Necroptosis inhibition assay (Rescue %) 10 μM (FADD−/− Jurkat cells; FADD−/− Jurkat cells)	Necroptosis inhibition assay (Rescue %) 1 μM (FADD−/− Jurkat cells)	Necroptosis inhibition assay (Rescue %) 10 μM (FADD−/− Jurkat cells)
Cc1cccc(NC(=O)[C@H](OC(=O)c2nc(-c3cnn(C4CCN(CCCN5CCN(C(=O)COc6ccc7c(c6)C(=O)N(C6CCC(=O)NC6=O)C7=O)CC5)CC4)c3)cnc2N)c2ccccc2)c1 (stereo partly drawn) [TDH-487, (R)-2-oxo-1-phenyl-2-(m-tolylamino)ethyl 3-amino-6-(1-(1-(3-(4-(2-((2-(2,6-dioxopiperidin-3-yl)-1,3-dioxoisoindolin-5-yl)oxy)acetyl)piperazin-1-yl)propyl)piperidin-4-yl)-1H-pyrazol-4-yl)pyrazine-2-carboxylate]	77.25%	89.93%	4.3 nM	59.49%	58.14%		
Nc1ncc(-c2cnn(C3CCN(C(=O)COCCOCCNC(=O)CNc4ccc5c(c4)C(=O)N(C4CCC(=O)NC4=O)C5=O)CC3)c2)nc1C(=O)O[C@@H](C(=O)Nc1ccc(F)cc1)c1ccccc1 (stereo partly drawn) [TDH-191, (R)-2-((4-fluorophenyl)amino)-2-oxo-1-phenylethyl 3-amino-6-(1-(1-(2-(2-(2-(2-((2-(2,6-dioxopiperidin-3-yl)-1,3-dioxoisoindolin-5-yl)amino)acetamido)ethoxy)ethoxy)acetyl)piperidin-4-yl)-1H-pyrazol-4-yl)pyrazine-2-carboxylate]	44.99%	5.25%	4.9 nM			77.85%	49.93%
Nc1ncc(-c2cnn(C3CCN(CC4CCN(c5ccc6c(c5)C(=O)N(C5CCC(=O)NC5=O)C6=O)CC4)CC3)c2)nc1C(=O)O[C@@H](C(=O)Nc1ccc(F)cc1)c1ccccc1 (stereo partly drawn) [TDH-150, (R)-2-((4-fluorophenyl)amino)-2-oxo-1-phenylethyl 3-amino-6-(1-(1-((1-(2-(2,6-dioxopiperidin-3-yl)-1,3-dioxoisoindolin-5-yl)piperidin-4-yl)methyl)piperidin-4-yl)-1H-pyrazol-4-yl)pyrazine-2-carboxylate]	66.97%	53.7%	43 nM			53.91%	39.57%
Nc1ncc(-c2cnn(C3CCN(CC4CCN(C(=O)C5CCN(c6cccc7c6C(=O)N(C6CCC(=O)NC6=O)C7=O)CC5)CC4)CC3)c2)nc1C(=O)N[C@@H](C(=O)Nc1ccc(F)cc1)c1ccccc1 (stereo partly drawn) [TDH-209, 3-amino-6-(1-(1-((1-(1-(2-(2,6-dioxopiperidin-3-yl)-1,3-dioxoisoindolin-4-yl)piperidine-4-carbonyl)piperidin-4-yl)methyl)piperidin-4-yl)-1H-pyrazol-4-yl)-N-((R)-2-((4-fluorophenyl)amino)-2-oxo-1-phenylethyl)pyrazine-2-carboxamide]	7.36%		140 nM			7.73%	18.12%
Nc1ncc(-c2cnn(C3CCN(CCOCCNC(=O)C4CN(c5cccc6c5C(=O)N(C5CCC(=O)NC5=O)C6=O)C4)CC3)c2)nc1C(=O)O[C@@H](C(=O)Nc1ccc(F)cc1)c1ccccc1 (stereo partly drawn) [TDH-126, (R)-2-((4-fluorophenyl)amino)-2-oxo-1-phenylethyl 3-amino-6-(1-(1-(2-(2-(1-(2-(2,6-dioxopiperidin-3-yl)-1,3-dioxoisoindolin-4-yl)azetidine-3-carboxamido)ethoxy)ethyl)piperidin-4-yl)-1H-pyrazol-4-yl)pyrazine-2-carboxylate]	31.29%	81.59%	9.2 nM			19.35%	58.35%
Nc1ncc(-c2cnn(C3CCN(CCOCCOCCNC(=O)COc4ccc5c(c4)C(=O)N(C4CCC(=O)NC4=O)C5=O)CC3)c2)nc1C(=O)O[C@@H](C(=O)Nc1ccc(F)cc1)c1ccccc1 (stereo partly drawn) [TDH-167, (R)-2-((4-fluorophenyl)amino)-2-oxo-1-phenylethyl 3-amino-6-(1-(1-(2-(2-(2-(2-((2-(2,6-dioxopiperidin-3-yl)-1,3-dioxoisoindolin-5-yl)oxy)acetamido)ethoxy)ethoxy)ethyl)piperidin-4-yl)-1H-pyrazol-4-yl)pyrazine-2-carboxylate]	36.7%	60.91%	1.7 nM			45.5%	38.58%
Nc1ncc(-c2cnn(C3CCN(CC4CCN(CC(=O)NC5CCN(c6cccc7c6C(=O)N(C6CCC(=O)NC6=O)C7=O)CC5)CC4)CC3)c2)nc1C(=O)OC(C(=O)Nc1ccc(F)cc1)c1ccccc1 (stereo not drawn) [TDH-236, 2-((4-fluorophenyl)amino)-2-oxo-1-phenylethyl 3-amino-6-(1-(1-((1-(2-((1-(2-(2,6-dioxopiperidin-3-yl)-1,3-dioxoisoindolin-4-yl)piperidin-4-yl)amino)-2-oxoethyl)piperidin-4-yl)methyl)piperidin-4-yl)-1H-pyrazol-4-yl)pyrazine-2-carboxylate]	32.16%	27.8%	4.9 nM			42.35%	46.48%

The next molecules have a lower Kd (MLKL [2]) than those just listed; values first:

Degradation assay (Degradation %) 1 μM (MLKL [1])	Degradation assay (Degradation %) 10 μM (MLKL [1])	Kd (MLKL [2])	SMILES	Necroptosis inhibition assay (Rescue %) 1 μM (FADD−/− Jurkat cells; FADD−/− Jurkat cells)	Necroptosis inhibition assay (Rescue %) 10 μM (FADD−/− Jurkat cells; FADD−/− Jurkat cells)	Necroptosis inhibition assay (Rescue %) 1 μM (FADD−/− Jurkat cells)	Necroptosis inhibition assay (Rescue %) 10 μM (FADD−/− Jurkat cells)
46.11%	56.40%	0.22 nM	Nc1ncc(-c2cnn(C3CCN(CCC4CCN(C(=O)c5ccc(C(=O)NC6CCC(=O)NC6=O)cc5)CC4)CC3)c2)nc1C(=O)O[C@@H](C(=O)Nc1ccc(F)cc1)c1ccccc1 (stereo partly drawn) [TDH-536, (R)-2-((4-fluorophenyl)amino)-2-oxo-1-phenylethyl 3-amino-6-(1-(1-(2-(1-(4-((2,6-dioxopiperidin-3-yl)carbamoyl)benzoyl)piperidin-4-yl)ethyl)piperidin-4-yl)-1H-pyrazol-4-yl)pyrazine-2-carboxylate]	31.84%	21.93%		
78.38%	77.07%	1.5 nM	Nc1ncc(-c2cnn(C3CCN(C(=O)C4CCN(C(=O)CCc5ccc6c(c5)C(=O)N(C5CCC(=O)NC5=O)C6=O)CC4)CC3)c2)nc1C(=O)O[C@@H](C(=O)Nc1ccc(F)cc1)c1ccccc1 (stereo partly drawn) [TDH-381, (R)-2-((4-fluorophenyl)amino)-2-oxo-1-phenylethyl 3-amino-6-(1-(1-(1-(3-(2-(2,6-dioxopiperidin-3-yl)-1,3-dioxoisoindolin-5-yl)propanoyl)piperidine-4-carbonyl)piperidin-4-yl)-1H-pyrazol-4-yl)pyrazine-2-carboxylate]			32.48%	28.99%
79.68%	71.14%	0.93 nM	Nc1ncc(-c2cnn(C3CCN(CCCN4CCN(C(=O)CCc5cccc6c5CN(C5CCC(=O)NC5=O)C6=O)CC4)CC3)c2)nc1C(=O)O[C@@H](C(=O)Nc1ccc(F)cc1)c1ccccc1 (stereo partly drawn) [TDH-386, (R)-2-((4-fluorophenyl)amino)-2-oxo-1-phenylethyl 3-amino-6-(1-(1-(3-(4-(3-(2-(2,6-dioxopiperidin-3-yl)-1-oxoisoindolin-4-yl)propanoyl)piperazin-1-yl)propyl)piperidin-4-yl)-1H-pyrazol-4-yl)pyrazine-2-carboxylate]			34.89%	20.76%
89.05%	85.68%	0.19 nM	Nc1ncc(-c2cnn(C3CCN(C4CC5(CCN(CC6CCN(C(=O)c7ccc8c(c7)CN(C7CCC(=O)NC7=O)C8=O)CC6)CC5)C4)CC3)c2)nc1C(=O)O[C@@H](C(=O)Nc1ccc(F)cc1)c1ccccc1 (stereo partly drawn) [TDH-548, (R)-2-((4-fluorophenyl)amino)-2-oxo-1-phenylethyl 3-amino-6-(1-(1-(7-((1-(2-(2,6-dioxopiperidin-3-yl)-1-oxoisoindoline-5-carbonyl)piperidin-4-yl)methyl)-7-azaspiro[3.5]nonan-2-yl)piperidin-4-yl)-1H-pyrazol-4-yl)pyrazine-2-carboxylate]	64.86%	31.41%		
